# In patent US5486516A, “Furopyrimidine derivatives” (DowElanco, priority 1993, dated 1996):
# Columns and labels:
# [1] = tested on: Pseudoperonospora cubensis (downy mildew); assay: Plant pathology screen (Test 1), downy mildew on squash; details: foliar, read-out: DOWN MDEW control rating
# Experimental: (§1) The test compounds were formulated for application by dissolving 50 mg of the compound into 1.25 ml of solvent. The solvent was prepared by mixing 50 ml of "Tween 20" (polyoxyethylene (20) sorbitan monolaurate emulsifier) with 475 ml of acetone and 475 ml of ethanol. The solvent/compound solution was diluted to 125 ml with deionized water. The resulting formulation contains 400 ppm test chemical. Lower concentrations were obtained by serial dilution with the solvent-surfactant mixture.
# The formulated test compounds were applied by foliar spray. The following plant pathogens and their corresponding plants were employed.
# (§2) The formulated technical compounds were sprayed on all foliar surfaces of the host plants (or cut berry) to past run-off. Single pots of each host plant were placed on raised, revolving pedestals in a fume hood. Test solutions were sprayed on all foliar surfaces. All treatments were allowed to dry and the plants were inoculated with the appropriate pathogens within 2-4 hours.
# (§3) The effectiveness of test compounds in controlling disease was rated using the following scale.
# [2] = tested on: Erysiphe graminis tritici (powdery mildew); assay: Plant pathology screen (Test 1), powdery mildew on wheat; details: Blumeria graminis, in Triticum aestivum, foliar, read-out: POWD MDEW control rating
# Experimental: as §1
# (§4) The formulated test compounds were applied by foliar spray.
# as §2, §3
# [3] = tested on: Puccinia recondita tritici (leaf rust); assay: Plant pathology screen (Test 1), leaf rust on wheat; details: in Triticum aestivum, foliar, read-out: LEAF RUST control rating
# Experimental: This screen was used to evaluate the efficacy of the present compounds against a variety of different organisms that cause plant diseases.
# as §1, §4, §2, §3
# [4] = tested on: Twospotted spider mites (Tetranychus urticae Koch); assay: Mite/insect screen, twospotted spider mites; type: in vivo; details: Tetranychus urticae, sprayed leaves, read-out: SM results (percent mortality); for mortality at 200 ppm: rate 200 ppm; for mortality at 400 ppm: rate 400 ppm
# Procedure, shortened: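 Squash cotyledons infested with mites were sprayed to runoff at 10 psi with compound in acetone/alcohol plus emulsifiers, diluted in water to the stated concentrations. Percent mortality and phytotoxicity were scored after standard exposure periods.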
# [5] = tested on: Botrytis cinerea (gray mold); assay: Plant pathology screen (Test 1), gray mold on grape berries; details: read-out: GRAY MOLD control rating
# [6] = tested on: Pyricularia oryzae (rice blast); assay: whole plant or invertebrate; type: in vivo; details: foliar, read-out: RICE BLAST control rating
# [7] = tested on: melon aphids (Aphis gossvpii Glover); assay: Mite/insect screen, melon aphids; type: in vivo; details: Aphis, sprayed leaves, read-out: MA results (percent mortality); for mortality at 200 ppm: rate 200 ppm; for mortality at 400 ppm: rate 400 ppm
# Procedure, shortened: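 Aphids established on squash cotyledons were sprayed to runoff with compound in acetone/alcohol with sulfonate/nonionic emulsifiers, diluted in water to test concentrations. Leaves dried 1 h. Percent mortality scored after standard exposure periods.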
# [8] = tested on: southern armyworm (Spodopetra eridania Cramer); assay: Mite/insect screen, Southern armyworm; type: in vivo; details: Spodoptera eridania, sprayed leaves, read-out: SAW results (percent mortality); for mortality at 200 ppm: rate 200 ppm; for mortality at 400 ppm: rate 400 ppm
# Procedure, shortened: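 Compounds in acetone/alcohol with Toximul emulsifiers, diluted in water, sprayed to runoff on squash leaves at 10 psi and dried 1 h. Excised treated leaves fed to southern armyworm larvae in Petri dishes; percent mortality scored after standard exposure.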
# [9] = tested on: Southern corn rootworm (Diabrotica undecimpuctata howardi Barber); assay: Mite/insect screen, corn rootworm; type: in vivo; details: Diabrotica, soil, read-out: CRW results (percent mortality); for mortality at 12 ppm: CRW rate 12.00 ppm; for mortality at 24 ppm: CRW rate 24.00 ppm
# Procedure, shortened: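 Compound in acetone/alcohol with emulsifiers, diluted with water; 1 mL applied to 15 g dry sandy soil holding a presoaked corn seed. After 6–12 h drying, five 2-3 instar larvae added, held at 23° C; percent mortality and phytotoxicity scored after standard exposure periods.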
SMILES,pest or weed control at 400 µg/mL [1],pest or weed control at 400 µg/mL [2],pest or weed control at 400 µg/mL [3],mortality at 200 ppm [4],mortality at 400 ppm [4],pest or weed control at 400 µg/mL [5],pest or weed control at 400 µg/mL [6],mortality at 200 ppm [7],mortality at 400 ppm [7],mortality at 200 ppm [8],mortality at 400 ppm [8],mortality at 12 ppm [9],mortality at 24 ppm [9]
"Cc1cc2c(OCCc3ccc(OC(C)(C)C)cc3)ncnc2o1 [Example 43, 6-methyl-4-[2-[4-(t-butoxy)phenyl]ethoxy]furo[2,3-d]pyrimidine]",90 to 100%,90 to 100%,90 to 100%,90%,80%,0 to 19%,20 to 89%,90%,80%,0%,0%,0%,0%
"CCCCOc1ccc(CCOc2ncnc3oc(C)cc23)cc1 [Example 44, 4-[4-(4-butoxyphenyl)ethoxy]-6-methylfuro[2,3-d]pyrimidine]",20 to 89%,0 to 19%,90 to 100%,,0%,0 to 19%,0 to 19%,,0%,,0%,,0%
"CCCCOc1ccc(CCOc2ncnc3oc(C)c(C)c23)cc1 [Example 45, 5,6-dimethyl-4-[2-[4-(n-butoxy)phenyl]ethoxy]furo[2,3-d]pyrimidine]",20 to 89%,20 to 89%,90 to 100%,90%,100%,0 to 19%,0 to 19%,90%,90%,0%,0%,0%,0%
"Cc1cc2c(OCCc3ccc(C(C)(C)C)cc3)ncnc2o1 [Example 46, 4-[2-[4-(1,1-dimethylethyl)phenyl]ethoxy]-6-methylfuro[2,3-d]pyrimidine]",0 to 19%,0 to 19%,0 to 19%,80%,80%,0 to 19%,0 to 19%,90%,60%,0%,0%,0%,0%
"Cc1oc2ncnc(NCCc3ccc(OC(F)(F)C(F)F)cc3)c2c1C [Example 47, N-[2-[4-(1,1,2,2-tetrafluoroethoxy)phenyl]ethyl]-5,6-dimethylfuro[2,3-d]pyrimidin-4-amine]",90 to 100%,20 to 89%,90 to 100%,90%,100%,0 to 19%,90 to 100%,100%,100%,100%,0%,100%,80%
"Cc1ccc(CCNc2ncnc3occ(C)c23)cc1 [Example 48, 5-methyl-N-[2-(4-methylphenyl)ethyl]furo[2,3-d]pyrimidin-4-amine]",90 to 100%,90 to 100%,90 to 100%,0%,0%,0 to 19%,90 to 100%,0%,80%,0%,0%,60%,100%
"Cc1oc2ncnc(Oc3ccc(F)cc3)c2c1C [Example 49, 5,6-dimethyl-4-(4-fluorophenoxy)furo[2,3-d]pyrimidine]",0 to 19%,90 to 100%,90 to 100%,0%,0%,0 to 19%,0 to 19%,0%,0%,80%,0%,0%,0%
"Cc1oc2ncnc(OCCc3ccc(C(C)(C)C)cc3)c2c1C [Example 50, 4-[2-[4-(t-butyl)phenyl]ethoxy]-5,6-dimethylfuro[2,3-d]pyrimidine]",20 to 89%,20 to 89%,20 to 89%,0%,100%,0 to 19%,20 to 89%,0%,100%,0%,0%,0%,0%
"Cc1oc2ncnc(OCCc3ccc(-c4ccccc4)cc3)c2c1C [Example 51, 4-[2-[4-biphenylyl]ethoxy]-5,6-dimethylfuro[2,3-d]pyrimidine]",90 to 100%,0 to 19%,0 to 19%,100%,80%,0 to 19%,0 to 19%,90%,80%,0%,0%,0%,0%
"COc1ccc(CCOc2ncnc3oc(C)c(C)c23)cc1 [Example 52, 4-[2-(4-methoxyphenyl)ethoxy]-5,6-dimethylfuro[2,3-d]pyrimidine]",90 to 100%,90 to 100%,90 to 100%,0%,0%,0 to 19%,90 to 100%,80%,100%,0%,0%,0%,0%
"Cc1oc2ncnc(OCCc3ccc(Cl)cc3)c2c1C [Example 53, 4-[2-(4-chlorophenyl)ethoxy]-5,6-dimethylfuro[2,3-d]pyrimidine]",0 to 19%,20 to 89%,90 to 100%,0%,30%,0 to 19%,20 to 89%,0%,60%,0%,0%,0%,0%
Cc1oc2ncnc(OCCc3ccc(C(F)(F)F)cc3)c2c1C [Example 54],0 to 19%,90 to 100%,90 to 100%,100%,60%,0 to 19%,90 to 100%,100%,40%,0%,40%,0%,0%
"Cc1oc2ncnc(OCCc3ccc4ccccc4c3)c2c1C [Example 55, 5,6-dimethyl-4-[2-(2-naphthyl)ethoxy]furo[2,3-d]pyrimidine]",0 to 19%,0 to 19%,20 to 89%,0%,0%,0 to 19%,0 to 19%,0%,0%,0%,0%,0%,0%
"Cc1oc2ncnc(Sc3ccc(F)cc3)c2c1C [Example 56, 5,6-dimethyl-4-[(4-fluorophenyl)thio]furo[2,3-d]pyrimidine]",0 to 19%,20 to 89%,20 to 89%,0%,0%,0 to 19%,20 to 89%,0%,0%,0%,0%,0%,0%
